Broadly, the EC50 is the concentration needed to bring the measured effect to its halfway point. In general, half-life refers to how long it takes for the measured level to halve. Usually Tmax stands for the time at which the peak concentration occurs.

We go through eleven compounds from patent US20150344540A1, “NOVEL GLP-1 RECEPTOR AGONISTS WITH CHOLESTEROL EFFLUX ACTIVITY” (NOVO NORDISK A/S, priority 2012, published 2015).

The target in data set [1] is T1, human GLP-1 receptor (Homo sapiens, UniProt P43220). Briefly: Functional GLP-1 receptor assay, in vitro potency (CRE luciferase; whole cells). It counts as cell-based. Particulars: BHK cells expressing human GLP-1 receptor.
Target sequence in this assay (P43220 24-463): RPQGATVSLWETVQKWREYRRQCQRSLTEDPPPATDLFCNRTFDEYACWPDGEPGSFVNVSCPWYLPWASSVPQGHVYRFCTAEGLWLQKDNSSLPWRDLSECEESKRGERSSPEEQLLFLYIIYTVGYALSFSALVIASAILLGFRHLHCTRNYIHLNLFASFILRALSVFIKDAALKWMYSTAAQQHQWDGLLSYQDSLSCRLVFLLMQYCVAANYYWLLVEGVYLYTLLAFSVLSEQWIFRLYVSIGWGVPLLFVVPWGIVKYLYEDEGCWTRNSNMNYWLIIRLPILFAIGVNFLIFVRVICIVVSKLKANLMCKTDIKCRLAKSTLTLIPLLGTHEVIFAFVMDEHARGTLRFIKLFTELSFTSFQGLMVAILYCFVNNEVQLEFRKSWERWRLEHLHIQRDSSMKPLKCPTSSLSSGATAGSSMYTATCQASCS
Data set [2] deals with Mouse monocyte/macrophage cell line, RAW 264.7. Briefly: Cholesterol efflux assay (3H-cholesterol, macrophage cell line). Particulars: RAW 264.7, 4 hrs incubation, 0.1% human serum albumin, ABCA1-mediated efflux. It counts as cell-based.
Data set [3] in a line: Pharmacokinetics in mini-pigs after i.v. administration. Particulars: female, Göttingen, minipig, plasma, iv, 5 nmol/kg. A digest of the protocol:
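Female Göttingen mini-pigs (15-20 kg, N=3) received 5 nmol/kg i.v. via central venous catheter. Plasma levels of N-terminally intact peptide measured by LOCI immunoassay with N-terminal and mid-/C-terminal antibodies; non-compartmental analysis of individual profiles.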

Data set [4] is described as follows: Pharmacokinetics in normal mice after i.v. and s.c. administration. Format: in vivo, female C57B1/6J mice.
Procedure: The mice, 60 female C57B1/6J were purchased from Taconic, arriving at Novo Nordisk A/S Animal Unit at 6-7 weeks of age. The mice were housed according to standard rules in the animal unit and given free access to standard chow and tap water. The animals were kept at a room temperature and housed in groups of 8 mice, with free access to food and water, according to Animal Unit's SOP (Housing of experimental animals at Novo Nordisk A/S).
Peptide is administered as a single dose either s.c. or i.v.
After the 2nd sample the mice were sacrificed. The plasma concentrations of the compounds with intact N-terminus were determined using a Luminescence Oxygen Chanelling Immuno-assay (LOCI). The donor beads were coated with streptavidin, while acceptor beads were conjugated with a monoclonal antibody recognizing a mid-/C-terminal epitope of the peptide. The other monoclonal antibody, specific for the N-terminus, was biotinylated. The three reactants were combined with the analyte and formed a two-sited immuno-complex. Illumination of the complex released singlet oxygen atoms from the donor beads, which were channeled into the acceptor beads and triggered chemiluminescence which was measured in an Envision plate reader. The amount of light was proportional to the concentration of the compound.
The target of data set [5] is T1, human GLP-1 receptor.
Data set [6] concerns the target human GLP-1 receptor (human, UniProt P43220).
The mark [7] stands for this setting: GLP1R CRE luc 1% HSA EC50 Mean Value, 1% HSA.
[8] abbreviates: T1/2 Mean Value, Göttingen mini-pigs, N=3.
The mark [9] stands for this setting: female, C57B1/6J, mouse, plasma, sc.
The mark [10] stands for this setting: mice, s.c., Compound 1 dose 323 nmol/kg, Compound 5 dose 62 nmol/kg.

Like-named read-outs stand apart in the source and are kept apart here. Where a SMILES comes first, the peptide text is derived from it. [ ]: non-standard residue; d: D form. Aib = CC(C)(N)C(=O)O

Compound `CC[C@H](C)[C@H](NC(=O)[C@H](Cc1ccccc1)NC(=O)[C@H](CCC(=O)O)NC(=O)[C@H](CCCCN)NC(=O)[C@@H](NC(=O)[C@H](C)NC(=O)[C@H](CCC(=O)O)NC(=O)CNC(=O)[C@H](CCC(=O)O)NC(=O)[C@H](CC(C)C)NC(=O)[C@H](Cc1ccc(O)cc1)NC(=O)[C@H](CO)NC(=O)[C@H](CO)NC(=O)[C@@H](NC(=O)[C@H](CC(=O)O)NC(=O)[C@H](CO)NC(=O)[C@@H](NC(=O)[C@H](Cc1ccccc1)NC(=O)[C@@H](NC(=O)CNC(=O)[C@H](CCC(=O)O)NC(=O)C(C)(C)NC(=O)[C@@H](N)Cc1c[nH]cn1)[C@@H](C)O)[C@@H](C)O)C(C)C)C(C)C)C(=O)N[C@@H](C)C(=O)N[C@@H](Cc1c[nH]c2ccccc12)C(=O)N[C@@H](CC(C)C)C(=O)N[C@H](C(=O)N[C@@H](CCC(=O)O)C(=O)N[C@@H](CCCCN)C(=O)N[C@H](C(=O)N[C@@H](CCCCN)C(=O)N[C@@H](CCC(=O)O)C(=O)N[C@@H](Cc1c[nH]cn1)C(=O)N[C@@H](CC(C)C)C(N)=O)C(C)C)C(C)C` [Compound 5, [Aib8,Glu23,Val25,Glu34,Lys35,Val36,Lys37]-GLP-1-(7-37)-peptidyl-Glu-His-Leu amide] (H-H[Aib]EGTFTSDVSSYLEGEAVKEFIAWLVEKVKEHL-NH2) yielded an EC50 on human GLP-1 receptor [1] (setting [7]) of 116 pM. For the same compound, the “4 h Cholesterol Efflux Emax” value in data set [2] is 111%. Further, the C0 in data set [3] was found to be 63.3 nM. Moreover, the Vd in data set [3] was found to be 0.128 L/kg; in data set [4] (female, C57B1/6J, mouse, plasma, iv, read-out: Volume of distribution), 0.048 L/kg. In addition, the clearance was 3.87 mL/h/kg in data set [3]; 5.6 mL/h/kg in data set [4] (mice, i.v., Compound 1 dose 99 nmol/kg, Compound 5 dose 135 nmol/kg); 8.298 mL/h/kg in data set [4] (setting [10]). In addition, the half-life in data set [3] (T1/2, mini-pigs) is 23 h; in data set [3] (setting [8]), 23 h; in data set [4] (female, C57B1/6J, mouse, plasma, iv) it was 5.9 h; in data set [4] (setting [9]) it was 9.7 h. Also, in data set [4] (setting [9]), the time to peak (Tmax) is 4 h. Moreover, the Volume of distribution in data set [4] (setting [10]) was 0.1164 L/kg.
With `CC[C@H](C)[C@H](NC(=O)[C@H](Cc1ccccc1)NC(=O)[C@H](CCC(=O)O)NC(=O)[C@H](CCCCN)NC(=O)[C@@H](NC(=O)[C@H](C)NC(=O)[C@H](CCC(=O)O)NC(=O)CNC(=O)[C@H](CCC(=O)O)NC(=O)[C@H](CC(C)C)NC(=O)[C@H](Cc1ccc(O)cc1)NC(=O)[C@H](CO)NC(=O)[C@H](CO)NC(=O)[C@@H](NC(=O)[C@H](CC(=O)O)NC(=O)[C@H](CO)NC(=O)[C@@H](NC(=O)[C@H](Cc1ccccc1)NC(=O)[C@@H](NC(=O)CNC(=O)[C@H](CCC(=O)O)NC(=O)C(C)(C)NC(=O)[C@@H](N)Cc1c[nH]cn1)[C@@H](C)O)[C@@H](C)O)C(C)C)C(C)C)C(=O)N[C@@H](C)C(=O)N[C@@H](Cc1c[nH]c2ccccc12)C(=O)N[C@@H](CC(C)C)C(=O)N[C@H](C(=O)N[C@@H](CCC(=O)O)C(=O)N[C@@H](CCCCN)C(=O)N[C@H](C(=O)N[C@@H](CCCCN)C(=O)N[C@@H](CCC(=O)O)C(=O)N[C@@H](CCCCN)C(=O)N[C@@H](CC(C)C)C(N)=O)C(C)C)C(C)C` [Compound 118, [Aib8,Glu23,Val25,Glu34,Lys35,Val36,Lys37]-GLP-1-(7-37)-peptidyl-Glu-Lys-Leu amide] (H-H[Aib]EGTFTSDVSSYLEGEAVKEFIAWLVEKVKEKL-NH2), the 50% effective concentration (EC50) on human GLP-1 receptor [1] (0% HSA, read-out: GLP1R CRE luc 0% HSA EC50 Mean Value) was found to be 59 pM. Moreover, the concentration giving a half-maximal response (EC50) at human GLP-1 receptor [1] (setting [7]) was 29 pM. Further, the “4 h Cholesterol Efflux Emax” value in data set [2] turned out to be 136%. Besides, in data set [3], the C0 stood at 62.9 nM, the Vd is 0.0809 L/kg and the clearance was 4.99 mL/h/kg. The compound further gave a half-life in data set [3] (setting [8]) of 11.2 h.
In the case of Exendin-4(1-39) (ligand), in the data set with human GLP-1 receptor [5], the CRE luciferase EC50, 0% HSA is 5 pM and the CRE luciferase EC50, 1% HSA was 4 pM.
Regarding “[Aib2,Gly16,Lys17,Ala18,Arg20,Glu21,Leu27,Glu28,Lys29]-Glucagonyl-(1-29)-Aib-Lys-Glu-Phe-Leu amide (peptide)”, in the data set with human GLP-1 receptor [6], the CRE luciferase EC50, 0% HSA turned out to be 1630 pM and the CRE luciferase EC50, 1% HSA stood at 908 pM.
The matching figures for “[Aib2,Gly16,Lys17,Arg20,Glu21,Leu27,Glu28,Lys29]-Glucagonyl-(1-29)-Aib-Lys-Glu-Phe-Leu amide (peptide)”: 591 pM and 297 pM.
On to “[Aib2,His3,Glu15,Glu16,Glu17,Ala18,Lys20,Glu21,Ile23,Ala24,Leu27,Glu28,Lys29]-Glucagonyl-(1-29)-Aib-Lys-Glu-Phe-Leu amide (peptide)”, for which, in the data set with human GLP-1 receptor [6], the CRE luciferase EC50, 0% HSA is 80 pM and the CRE luciferase EC50, 1% HSA worked out at 49 pM.
With “[Aib2,Lys17,Ala18,Arg20,Glu21,Leu27,Glu28,Lys29]-Glucagonyl-(1-29)-Aib-Lys-Glu-Phe-Leu amide (peptide)”, in the data set with human GLP-1 receptor [6], the CRE luciferase EC50, 0% HSA came out at 393 pM and the CRE luciferase EC50, 1% HSA came to 153 pM.
The matching figures for “[Glu15,Glu16,Gln17,Ala18,Lys20,Glu21,Ile23,Ala24,Leu27,Glu28,Lys29]-Glucagonyl-(1-29)-Aib-Lys-Glu-Phe-Leu amide (peptide)”: 118 pM and 61 pM.
The matching figures for “[Glu15,Glu16,Lys17,Ala18,Lys20,Glu21,Ile23,Ala24,Leu27,Glu28,Lys29]-Glucagonyl-(1-29)-Aib-Lys-Glu-Phe-Leu amide (peptide)”: 86 pM and 44 pM.
Take “[Glu15,Glu16,Lys17,Lys18,Lys20,Glu21,Ile23,Ala24,Leu27,Glu28,Lys29]-Glucagonyl-(1-29)-Aib-Lys-Glu-Phe-Leu amide (peptide)”: in the data set with human GLP-1 receptor [6], the CRE luciferase EC50, 0% HSA was found to be 1170 pM and the CRE luciferase EC50, 1% HSA came out at 588 pM.
The matching figures for “[Lys17,Ala18,Arg20,Glu21,Leu27,Glu28,Lys29]-Glucagonyl-(1-29)-Aib-Lys-Glu-Phe-Leu amide (peptide)”: 434 pM and 198 pM.
